Data on 20 substances can be found in the OligoGym collection.

The data set has as its target Mmp7 (rat). The experiment in a line: reporter assay of Huesken 2005. Conditions: siRNA. On the technique in general: In a reporter assay the amount or activity of a reporter protein is the signal.

Oligonucleotides are given in HELM: sugar(base)linkage, 5' to 3'; d 2'-deoxyribose, r ribose, m 2'-O-methylribose, p phosphate. ss, as = sense and antisense strand
Further: test concentration or dose not given here.

With “RNA1{r(G)p.r(U)p.r(G)p.r(U)p.r(C)p.r(A)p.r(U)p.r(G)p.r(G)p.r(A)p.r(G)p.r(A)p.r(U)p.r(A)p.r(A)p.r(U)p.r(G)p.r(C)p.r(A)p.d(T)p.d(T)}|RNA2{r(U)p.r(G)p.r(C)p.r(A)p.r(U)p.r(U)p.r(A)p.r(U)p.r(C)p.r(U)p.r(C)p.r(C)p.r(A)p.r(U)p.r(G)p.r(A)p.r(C)p.r(A)p.r(C)p.d(G)p.d(G)}$$$RNA1{StrandType:ss}|RNA2{StrandType:as}$”, the normalised inhibition (eCFP-eYFP dual reporter) is 112%.

On to “RNA1{r(G)p.r(G)p.r(U)p.r(U)p.r(U)p.r(G)p.r(C)p.r(C)p.r(G)p.r(G)p.r(A)p.r(G)p.r(A)p.r(C)p.r(U)p.r(G)p.r(G)p.r(A)p.r(A)p.d(T)p.d(T)}|RNA2{r(U)p.r(U)p.r(C)p.r(C)p.r(A)p.r(G)p.r(U)p.r(C)p.r(U)p.r(C)p.r(C)p.r(G)p.r(G)p.r(C)p.r(A)p.r(A)p.r(A)p.r(C)p.r(C)p.d(G)p.d(A)}$$$RNA1{StrandType:ss}|RNA2{StrandType:as}$”, for which the normalised inhibition (eCFP-eYFP dual reporter) was determined as 103%.

In the case of “RNA1{r(C)p.r(C)p.r(C)p.r(A)p.r(G)p.r(G)p.r(U)p.r(G)p.r(U)p.r(G)p.r(G)p.r(A)p.r(G)p.r(U)p.r(G)p.r(C)p.r(C)p.r(A)p.r(G)p.d(T)p.d(T)}|RNA2{r(C)p.r(U)p.r(G)p.r(G)p.r(C)p.r(A)p.r(C)p.r(U)p.r(C)p.r(C)p.r(A)p.r(C)p.r(A)p.r(C)p.r(C)p.r(U)p.r(G)p.r(G)p.r(G)p.d(C)p.d(T)}$$$RNA1{StrandType:ss}|RNA2{StrandType:as}$”, the normalised inhibition (eCFP-eYFP dual reporter) turned out to be 60.7%.

As to “RNA1{r(A)p.r(G)p.r(A)p.r(C)p.r(A)p.r(U)p.r(C)p.r(A)p.r(U)p.r(A)p.r(A)p.r(U)p.r(U)p.r(G)p.r(G)p.r(C)p.r(U)p.r(U)p.r(C)p.d(T)p.d(T)}|RNA2{r(G)p.r(A)p.r(A)p.r(G)p.r(C)p.r(C)p.r(A)p.r(A)p.r(U)p.r(U)p.r(A)p.r(U)p.r(G)p.r(A)p.r(U)p.r(G)p.r(U)p.r(C)p.r(U)p.d(G)p.d(C)}$$$RNA1{StrandType:ss}|RNA2{StrandType:as}$”, the normalised inhibition (eCFP-eYFP dual reporter) came to 99.4%.

Take “RNA1{r(A)p.r(A)p.r(A)p.r(U)p.r(U)p.r(U)p.r(U)p.r(A)p.r(C)p.r(C)p.r(U)p.r(U)p.r(C)p.r(A)p.r(C)p.r(G)p.r(A)p.r(C)p.r(U)p.d(T)p.d(T)}|RNA2{r(A)p.r(G)p.r(U)p.r(C)p.r(G)p.r(U)p.r(G)p.r(A)p.r(A)p.r(G)p.r(G)p.r(U)p.r(A)p.r(A)p.r(A)p.r(A)p.r(U)p.r(U)p.r(U)p.d(C)p.d(C)}$$$RNA1{StrandType:ss}|RNA2{StrandType:as}$”: the normalised inhibition (eCFP-eYFP dual reporter) worked out at 74.4%.

Take “RNA1{r(A)p.r(G)p.r(G)p.r(C)p.r(G)p.r(U)p.r(G)p.r(A)p.r(A)p.r(C)p.r(U)p.r(U)p.r(C)p.r(C)p.r(U)p.r(G)p.r(U)p.r(U)p.r(U)p.d(T)p.d(T)}|RNA2{r(A)p.r(A)p.r(A)p.r(C)p.r(A)p.r(G)p.r(G)p.r(A)p.r(A)p.r(G)p.r(U)p.r(U)p.r(C)p.r(A)p.r(C)p.r(G)p.r(C)p.r(C)p.r(U)p.d(G)p.d(A)}$$$RNA1{StrandType:ss}|RNA2{StrandType:as}$”: the normalised inhibition (eCFP-eYFP dual reporter) was 91.1%.

For “RNA1{r(C)p.r(C)p.r(C)p.r(A)p.r(G)p.r(G)p.r(A)p.r(A)p.r(G)p.r(C)p.r(C)p.r(G)p.r(G)p.r(A)p.r(G)p.r(A)p.r(A)p.r(G)p.r(U)p.d(T)p.d(T)}|RNA2{r(A)p.r(C)p.r(U)p.r(U)p.r(C)p.r(U)p.r(C)p.r(C)p.r(G)p.r(G)p.r(C)p.r(U)p.r(U)p.r(C)p.r(C)p.r(U)p.r(G)p.r(G)p.r(G)p.d(A)p.d(C)}$$$RNA1{StrandType:ss}|RNA2{StrandType:as}$”, the normalised inhibition (eCFP-eYFP dual reporter) was 64.2%.

In the case of “RNA1{r(U)p.r(G)p.r(A)p.r(G)p.r(G)p.r(G)p.r(A)p.r(A)p.r(A)p.r(U)p.r(G)p.r(C)p.r(A)p.r(G)p.r(A)p.r(A)p.r(G)p.r(U)p.r(U)p.d(T)p.d(T)}|RNA2{r(A)p.r(A)p.r(C)p.r(U)p.r(U)p.r(C)p.r(U)p.r(G)p.r(C)p.r(A)p.r(U)p.r(U)p.r(U)p.r(C)p.r(C)p.r(C)p.r(U)p.r(C)p.r(A)p.d(G)p.d(T)}$$$RNA1{StrandType:ss}|RNA2{StrandType:as}$”, the normalised inhibition (eCFP-eYFP dual reporter) was 104%.

As to “RNA1{r(C)p.r(A)p.r(G)p.r(A)p.r(C)p.r(A)p.r(U)p.r(C)p.r(A)p.r(U)p.r(A)p.r(A)p.r(U)p.r(U)p.r(G)p.r(G)p.r(C)p.r(U)p.r(U)p.d(T)p.d(T)}|RNA2{r(A)p.r(A)p.r(G)p.r(C)p.r(C)p.r(A)p.r(A)p.r(U)p.r(U)p.r(A)p.r(U)p.r(G)p.r(A)p.r(U)p.r(G)p.r(U)p.r(C)p.r(U)p.r(G)p.d(C)p.d(A)}$$$RNA1{StrandType:ss}|RNA2{StrandType:as}$”, the normalised inhibition (eCFP-eYFP dual reporter) was determined as 103%.

“RNA1{r(A)p.r(A)p.r(G)p.r(G)p.r(C)p.r(C)p.r(A)p.r(C)p.r(C)p.r(A)p.r(G)p.r(U)p.r(G)p.r(C)p.r(A)p.r(G)p.r(U)p.r(G)p.r(G)p.d(T)p.d(T)}|RNA2{r(C)p.r(C)p.r(A)p.r(C)p.r(U)p.r(G)p.r(C)p.r(A)p.r(C)p.r(U)p.r(G)p.r(G)p.r(U)p.r(G)p.r(G)p.r(C)p.r(C)p.r(U)p.r(U)p.d(C)p.d(T)}$$$RNA1{StrandType:ss}|RNA2{StrandType:as}$”: the normalised inhibition (eCFP-eYFP dual reporter) worked out at 22.3%.

For the substance “RNA1{r(A)p.r(U)p.r(C)p.r(U)p.r(U)p.r(A)p.r(G)p.r(G)p.r(A)p.r(A)p.r(A)p.r(U)p.r(U)p.r(U)p.r(U)p.r(A)p.r(C)p.r(C)p.r(U)p.d(T)p.d(T)}|RNA2{r(A)p.r(G)p.r(G)p.r(U)p.r(A)p.r(A)p.r(A)p.r(A)p.r(U)p.r(U)p.r(U)p.r(C)p.r(C)p.r(U)p.r(A)p.r(A)p.r(G)p.r(A)p.r(U)p.d(A)p.d(A)}$$$RNA1{StrandType:ss}|RNA2{StrandType:as}$”, the normalised inhibition (eCFP-eYFP dual reporter) came out at 79.6%.

On to “RNA1{r(C)p.r(C)p.r(U)p.r(G)p.r(C)p.r(C)p.r(A)p.r(C)p.r(U)p.r(G)p.r(U)p.r(C)p.r(C)p.r(C)p.r(A)p.r(G)p.r(G)p.r(A)p.r(A)p.d(T)p.d(T)}|RNA2{r(U)p.r(U)p.r(C)p.r(C)p.r(U)p.r(G)p.r(G)p.r(G)p.r(A)p.r(C)p.r(A)p.r(G)p.r(U)p.r(G)p.r(G)p.r(C)p.r(A)p.r(G)p.r(G)p.d(G)p.d(C)}$$$RNA1{StrandType:ss}|RNA2{StrandType:as}$”, for which the normalised inhibition (eCFP-eYFP dual reporter) was 67.9%.

Take “RNA1{r(G)p.r(C)p.r(C)p.r(A)p.r(G)p.r(A)p.r(U)p.r(G)p.r(U)p.r(U)p.r(G)p.r(C)p.r(A)p.r(G)p.r(A)p.r(A)p.r(U)p.r(U)p.r(C)p.d(T)p.d(T)}|RNA2{r(G)p.r(A)p.r(A)p.r(U)p.r(U)p.r(C)p.r(U)p.r(G)p.r(C)p.r(A)p.r(A)p.r(C)p.r(A)p.r(U)p.r(C)p.r(U)p.r(G)p.r(G)p.r(C)p.d(A)p.d(C)}$$$RNA1{StrandType:ss}|RNA2{StrandType:as}$”: the normalised inhibition (eCFP-eYFP dual reporter) was 100%.

With “RNA1{r(U)p.r(G)p.r(G)p.r(C)p.r(C)p.r(C)p.r(U)p.r(G)p.r(C)p.r(C)p.r(A)p.r(C)p.r(U)p.r(G)p.r(U)p.r(C)p.r(C)p.r(C)p.r(A)p.d(T)p.d(T)}|RNA2{r(U)p.r(G)p.r(G)p.r(G)p.r(A)p.r(C)p.r(A)p.r(G)p.r(U)p.r(G)p.r(G)p.r(C)p.r(A)p.r(G)p.r(G)p.r(G)p.r(C)p.r(C)p.r(A)p.d(G)p.d(G)}$$$RNA1{StrandType:ss}|RNA2{StrandType:as}$”, the normalised inhibition (eCFP-eYFP dual reporter) amounted to 93.6%.

Take “RNA1{r(G)p.r(U)p.r(G)p.r(U)p.r(G)p.r(G)p.r(A)p.r(G)p.r(U)p.r(G)p.r(C)p.r(C)p.r(A)p.r(G)p.r(A)p.r(U)p.r(G)p.r(U)p.r(U)p.d(T)p.d(T)}|RNA2{r(A)p.r(A)p.r(C)p.r(A)p.r(U)p.r(C)p.r(U)p.r(G)p.r(G)p.r(C)p.r(A)p.r(C)p.r(U)p.r(C)p.r(C)p.r(A)p.r(C)p.r(A)p.r(C)p.d(C)p.d(T)}$$$RNA1{StrandType:ss}|RNA2{StrandType:as}$”: the normalised inhibition (eCFP-eYFP dual reporter) came out at 93.9%.

For “RNA1{r(A)p.r(G)p.r(U)p.r(U)p.r(C)p.r(U)p.r(G)p.r(U)p.r(G)p.r(A)p.r(U)p.r(G)p.r(U)p.r(A)p.r(C)p.r(C)p.r(C)p.r(U)p.r(A)p.d(T)p.d(T)}|RNA2{r(U)p.r(A)p.r(G)p.r(G)p.r(G)p.r(U)p.r(A)p.r(C)p.r(A)p.r(U)p.r(C)p.r(A)p.r(C)p.r(A)p.r(G)p.r(A)p.r(A)p.r(C)p.r(U)p.d(G)p.d(G)}$$$RNA1{StrandType:ss}|RNA2{StrandType:as}$”, the normalised inhibition (eCFP-eYFP dual reporter) turned out to be 116%.

Regarding “RNA1{r(A)p.r(C)p.r(U)p.r(C)p.r(U)p.r(C)p.r(U)p.r(G)p.r(G)p.r(G)p.r(U)p.r(C)p.r(U)p.r(G)p.r(G)p.r(G)p.r(U)p.r(C)p.r(A)p.d(T)p.d(T)}|RNA2{r(U)p.r(G)p.r(A)p.r(C)p.r(C)p.r(C)p.r(A)p.r(G)p.r(A)p.r(C)p.r(C)p.r(C)p.r(A)p.r(G)p.r(A)p.r(G)p.r(A)p.r(G)p.r(U)p.d(G)p.d(G)}$$$RNA1{StrandType:ss}|RNA2{StrandType:as}$”, the normalised inhibition (eCFP-eYFP dual reporter) is 61.8%.

In the case of “RNA1{r(G)p.r(C)p.r(A)p.r(G)p.r(U)p.r(G)p.r(G)p.r(A)p.r(C)p.r(A)p.r(A)p.r(A)p.r(C)p.r(U)p.r(G)p.r(A)p.r(G)p.r(G)p.r(G)p.d(T)p.d(T)}|RNA2{r(C)p.r(C)p.r(C)p.r(U)p.r(C)p.r(A)p.r(G)p.r(U)p.r(U)p.r(U)p.r(G)p.r(U)p.r(C)p.r(C)p.r(A)p.r(C)p.r(U)p.r(G)p.r(C)p.d(A)p.d(C)}$$$RNA1{StrandType:ss}|RNA2{StrandType:as}$”, the normalised inhibition (eCFP-eYFP dual reporter) came to 32.3%.

As for “RNA1{r(A)p.r(A)p.r(G)p.r(C)p.r(C)p.r(C)p.r(A)p.r(G)p.r(G)p.r(U)p.r(G)p.r(U)p.r(G)p.r(G)p.r(A)p.r(G)p.r(U)p.r(G)p.r(C)p.d(T)p.d(T)}|RNA2{r(G)p.r(C)p.r(A)p.r(C)p.r(U)p.r(C)p.r(C)p.r(A)p.r(C)p.r(A)p.r(C)p.r(C)p.r(U)p.r(G)p.r(G)p.r(G)p.r(C)p.r(U)p.r(U)p.d(C)p.d(T)}$$$RNA1{StrandType:ss}|RNA2{StrandType:as}$”, the normalised inhibition (eCFP-eYFP dual reporter) turned out to be 47.5%.

As for “RNA1{r(G)p.r(C)p.r(U)p.r(U)p.r(C)p.r(G)p.r(C)p.r(A)p.r(A)p.r(G)p.r(G)p.r(G)p.r(G)p.r(A)p.r(G)p.r(A)p.r(U)p.r(C)p.r(A)p.d(T)p.d(T)}|RNA2{r(U)p.r(G)p.r(A)p.r(U)p.r(C)p.r(U)p.r(C)p.r(C)p.r(C)p.r(C)p.r(U)p.r(U)p.r(G)p.r(C)p.r(G)p.r(A)p.r(A)p.r(G)p.r(C)p.d(C)p.d(A)}$$$RNA1{StrandType:ss}|RNA2{StrandType:as}$”, the normalised inhibition (eCFP-eYFP dual reporter) worked out at 105%.
